Results as given in US20140161767A1, “FOLLICLE-STIMULATING HORMONE (FSH)/LYTIC DOMAIN FUSION CONSTRUCTS AND METHODS OF MAKING AND USING SAME” (BOARD OF SUPERVISORS OF LOUISIANA STATE UNIVERSITY AND …, priority 2012, published 2014).

Assays:
OVCAR-3 xenograft = experiment: OVCAR-3 ovarian cancer xenograft; type: in vivo
Method: The xenograft model of the OVCAR-3 human ovarian cancer cell line that present functional LHRH receptors was used in this study. OVCAR-3 represents a slow growing xenograft model and secretes the tumor marker (cancer antigen 125, or CA125). It's secretion can be used as treatment response and is a measure of drug activity.
In brief, Nu/Nu female mice, inbred strain, age 5 weeks (Harlan-Sprague Dawley) were injected subcutaneously with a NIH:OVCAR-3 cells/Matrigel suspension (4.6×10^6 cells/mouse). Treatment was started on day 33 after tumor cell injection when the tumors were established and continued on days 41 and 47. The doses for the 3 weekly injections were 0.02, 0.2 and 2 mg/kg body weight, given as a single bolus intravenous injection via lateral tail vein administered once a week for three weeks on days 33, 41 and 47. Necropsies were conducted on day 52. Data are presented as mean SEM. Arrows show dosing.
A group of 9 tumor bearing mice was sacrificed on day 33 and served as baseline group. All mice were necropsied 51-52 days after tumor cell injection. Tumor volumes and bodyweights were recorded twice weekly during the study, as well as overall veterinarian examination of mice was conducted.
Primary tumors, liver, kidney, pancreas, heart, lung, and spleen were collected, fixed in formalin and prepared for histological evaluation. Tumor weights were measured at necropsy, part of the tumors were frozen at −80° C. for LH/CG and LHRH receptor assay determination.
As a biomarker for drug activity, CA125 was determined in serum, collected from each individual mouse at necropsy using a Enzyme Linked Immunoassay for quantitative determination of ovarian cancer antigen CA125 (Assay kit Genway, Biotech, Inc. San Diego, Calif., Catalog #40-052-115009, # BC-1013 according to the manufacturer).
LHRH receptor levels were assessed from formalin fixed tumors. Quantitative immunoperoxidase image analysis was conducted with the Ventana Image Analysis System (VIAS) adjunctive computer assisted image analysis system functionally connected to an interactive microscope (Axio Imager). The quantitative analysis was conducted with the program for quantification of Her2/neu receptor that included morphometric and colorimetric analysis. Receptor status results were reported as percentage of cells showing positive staining of the LHRH receptors under the following criteria: 0 non-immunoreactive, 1+: 1-25% positive, 2+: 26 50% positive, 3+: 51-75% positive cells.

MDA-MB-435S = details: cited from earlier work
PC-3 xenograft = experiment: PC-3 prostate cancer xenograft, FSH-Phor18 fusion constructs; type: in vivo, mice; details: compared to vehicle
Method: This example describes in vivo studies in a mouse xenograft model of human prostate cancer (PC-3) with the three types and doses of (3-FSH-Phor18-fusion constructs (hFSH-β-33-53; hFSH-β-81-95 and hFSH-β-90-95).
Male Nu/Nu mice were injected subcutaneously with a PC-3/Matrigel suspension (1×10^6 cells). Mice were allocated into treatment groups of 8 mice per group on day 21 after tumor cell injection. Treatment started on day 1 and continued on day 5, 8, 12, 15 and 19. […] The doses for twice weekly injections were given as a single bolus injection.

Compound	Tumor volume at necropsy (PC-3 xenograft)	also measured
N.N.[Cl][Pt][Cl] [Cisplatinum, reference compound]	–	Tumor weights at necropsy (OVCAR-3 xenograft; Phor18-LHRH: 2 and 0.2 mg/kg vs saline and Phor18, p<0.05): not effective; Tumor volume (OVCAR-3 xenograft; during treatment): no reduction
COc1cccc2c1C(=O)c1c(O)c3c(c(O)c1C2=O)C[C@@](O)(C(=O)CO)C[C@@H]3O[C@H]1C[C@H](N)[C@H](O)[C@H](C)O1 [doxorubicin]	–	time to destroy human breast cancer cells in vitro (MDA-MB-435S): 4 h
CYTRDLVYKDPARPKIQKTCT [hFSH-β-33-53, unconjugated FSH beta chain fragment]	did not affect tumor volumes or tumor weights	–
DSTDCT (Follitropin subunit beta; UniProt P01225 108-113, looked up, fragment) [hFSH-β-90-95, unconjugated FSH beta chain fragment]	did not affect tumor volumes or tumor weights	–
QCHCGKCDSDSTDCT [hFSH-β-81-95, unconjugated FSH beta chain fragment]	did not affect tumor volumes or tumor weights	–
